From patent US12582638B2, “Pharmaceutical composition for treating cancer, containing mTOR-signaling inhibitor as active ingredient” (KOREA ADVANCED INSTITUTE OF SCIENCE AND TECHNOLOGY, priority 2020, dated 2026)
pIC50: −log10 of the molar value.

How the values were obtained:
Assay in all cases: Cell viability, CellTiterGlo, 72 hours
Type in all cases: cell-based
[1] = system: HT-29; settings: Homo sapiens, HT-29 cells, Colon
Experimental: (§1) In addition to the colorectal cells, 120 cancer cell lines treated with various concentrations of lomitapide were assayed for viability. To analyze cell viability, the cells were incubated with lomitapide at 37° C. for 72 hours in a 5% or 10% CO2 atmosphere and then equilibrated at room temperature for 1 hour, followed by addition of CellTiterGlo reagent (Promega). One hour later, luminescence was measured to calculate cell viability (%). The 120 cell lines were purchased from ATCC (American Type Culture Collection, Virginia, USA).

[2] = system: A498; settings: Homo sapiens, A498 cells, Kidney
Experimental: as §1

[3] = system: RERF-LC-Ad2; settings: RERF-LC-Ad2 cells, Lung
Experimental: as §1

[4] = system: SW948; settings: Homo sapiens, SW948 cells, Colon
Experimental: as §1

[5] = system: U251MG; settings: Homo sapiens, U-251, U251MG cells, Brain
Experimental: as §1

[6] = system: LnCap; settings: Homo sapiens, LnCap cells, Prostate
Experimental: as §1

[7] = system: U2OS; settings: Homo sapiens, U2OS cells, Bone
Experimental: as §1

[8] = system: NCI-N87; settings: Homo sapiens, NCI-N87 cells, Stomach
Experimental: as §1

[9] = system: HL-60; settings: Homo sapiens, HL-60 cells, Blood
Experimental: as §1

[10] = system: Saos-2 EC; settings: Homo sapiens, Saos-2 EC cells, Bone
Experimental: as §1

[11] = system: MCF-7; settings: Homo sapiens, MCF7, MCF-7 cells, Breast
Experimental: as §1

[12] = system: OVCAR-3; settings: Homo sapiens, OVCAR-3 cells, Ovary
Experimental: as §1

[13] = system: Hs 746T; settings: Homo sapiens, Hs746T, Hs 746T cells, Stomach
Experimental: as §1

[14] = system: Colo 205; settings: Homo sapiens, Colo 205 cells, Colon
Experimental: as §1

[15] = system: SNU-216; settings: SNU-216 cells, Stomach
Experimental: as §1

[16] = system: NCI-H441; settings: Homo sapiens, NCI-H441 cells, Lung
Experimental: as §1

[17] = system: NCI-H2286; settings: Homo sapiens, NCI-H2286 cells, Lung
Experimental: as §1

[18] = system: Mia PaCA 2; settings: Homo sapiens, Mia PaCA 2 cells, Pancreas
Experimental: as §1

[19] = system: SK-OV3; settings: Homo sapiens, SK-OV-3, SK-OV3 cells, Ovary
Experimental: as §1

[20] = system: T98G; settings: Homo sapiens, T98G cells, Brain
Experimental: as §1

[21] = system: P31/FUJ; settings: Homo sapiens, P31/FUJ cells, Blood
Experimental: as §1

[22] = system: SK-ES-1; settings: Homo sapiens, SK-ES1, SK-ES-1 cells, Bone
Experimental: as §1

[23] = system: EPLC-272H; settings: Homo sapiens, EPLC-272H cells, Lung
Experimental: as §1

[24] = system: NCI-H1437; settings: Homo sapiens, NCI-H1437 cells, Lung
Experimental: as §1

[25] = system: HEC-1-B; settings: Homo sapiens, HEC-1-B cells, Endometrium
Experimental: as §1

[26] = system: MV4-11; settings: Homo sapiens, MV4-11 cells, Blood
Experimental: as §1

[27] = system: HCT116; settings: Homo sapiens, HCT-116, HCT116 cells, Colon
Experimental: as §1

[28] = system: H4; settings: H4 cells, Brain
Experimental: as §1

[29] = system: DV90; settings: Homo sapiens, DV-90, DV90 cells, Lung
Experimental: as §1

[30] = system: AsPC-1; settings: Homo sapiens, ASPC1, AsPC-1 cells, Pancreas
Experimental: as §1

[31] = system: COR-L279; settings: Homo sapiens, COR-L279 cells, Lung
Experimental: as §1

[32] = system: OCI-AML3; settings: Homo sapiens, OCI-AML-3, OCI-AML3 cells, Blood
Experimental: as §1

[33] = system: NCI-H1573; settings: Homo sapiens, NCI-H1573 cells, Lung
Experimental: as §1

[34] = system: K562; settings: Homo sapiens, K562 cells, Blood
Experimental: as §1

[35] = system: RERF-LC-MS; settings: RERF-LC-MS cells, Lung
Experimental: as §1

[36] = system: HCC 1569; settings: Homo sapiens, HCC1569, HCC 1569 cells, Breast
Experimental: as §1

[37] = system: NCI-H2110; settings: NCI-H2110 cells, Lung
Experimental: as §1

[38] = system: T84; settings: Homo sapiens, T84 cells, Colon
Experimental: as §1

[39] = system: Ishikawa; settings: Homo sapiens, Ishikawa cells, Endometrium
Experimental: as §1

## O=C(NC1CCN(CCCCC2(C(=O)NCC(F)(F)F)c3ccccc3-c3ccccc32)CC1)c1ccccc1-c1ccc(C(F)(F)F)cc1 [lomitapide, N-(2,2,2-trifluoroethyl)-9-[4-[4-[[[4′-(trifluoromethyl)[1,1′-biphenyl]2-yl]carbonyl]amino]-1-piperidinyl]butyl]-9H-fluoren-9-carboxamide]
[1]
  pIC50: 5.80
[2]
  pIC50: 5.54
[3]
  pIC50: 5.59
[4]
  pIC50: 5.35
[5]
  pIC50: 5.27
[6]
  pIC50: 5.46
[7]
  pIC50: 5.55
[8]
  pIC50: 5.48
[9]
  pIC50: 5.48
[10]
  pIC50: 5.44
[11]
  pIC50: 5.55
[12]
  pIC50: 5.28
[13]
  pIC50: 5.60
[14]
  pIC50: 5.47
[15]
  pIC50: 5.51
[16]
  pIC50: 5.49
[17]
  pIC50: 5.47
[18]
  pIC50: 5.54
[19]
  pIC50: 5.48
[20]
  pIC50: 5.42
[21]
  pIC50: 5.51
[22]
  pIC50: 5.46
[23]
  pIC50: 5.51
[24]
  pIC50: 5.51
[25]
  pIC50: 5.16
[26]
  pIC50: 5.21
[27]
  pIC50: 5.30
[28]
  pIC50: 5.34
[29]
  pIC50: 5.28
[30]
  pIC50: 5.44
[31]
  pIC50: 5.57
[32]
  pIC50: 5.68
[33]
  pIC50: 5.33
[34]
  pIC50: 5.68
[35]
  pIC50: 5.49
[36]
  pIC50: 5.54
[37]
  pIC50: 5.48
[38]
  pIC50: 5.49
[39]
  pIC50: 5.44
